Experimental findings from PMC9031226, “Preclinical Therapeutic Assessment of a New Chemotherapeutics [Dichloro(4,4’-Bis(2,2,3,3-Tetrafluoropropoxy) Methyl)-2,2’-Bipryridine) Platinum] in an Orthotopic Patient-Derived Xenograft Model of Triple-Negative Breast Cancers” (Pharmaceutics, 2022) are described below.

The nature of data set [1]: CDX model: body and organ weight, CBC and blood biochemistry. In kind it is in vivo. The following applies: NSG mice. As to the method: The procedures for the establishment of breast cancer-bearing xenograft models were modified from a previous publication and approved by the Taipei Medical University (TMU) Institutional Animal Care and Use Committee (IACUC No. LAC-2020-0175). Overall, 4- to 6-week-old NOD.Cg-PrkdcscidIl2rgtm1Wjl/SzJ (NSG) female mice purchased from National Laboratory Animal Center (Taipei, Taiwan) were housed in specific pathogen-free rooms with ad libitum feeding and 12 h light–dark cycle. After a week of acclimatization, 2 × 10^6 MDA-MB-231 cells suspended in 1:1 ratio of phosphate-buffered saline plus Matrigel® Matrix (Cat. 356237; Corning Inc., New York, NY, USA) were subcutaneously injected on the right flank of each mouse. […] To monitor tumor growth in the models, tumor diameter was measured using an electronic caliper and values were applied on the equation: width^2 × length × 0.52 to estimate their tumor volume. All mice were sacrificed on day 28 after treatment. Plasma, tumors and major organs (heart, liver, kidney, spleen and lung) were collected for toxicity assessment and metastasis evaluation. Whole blood harvested from sacrificed animals was collected in EDTA-containing or heparin-containing tubes for CBC and biochemical analysis. For biochemical analysis, whole blood was centrifuged under 2000× g for 5 min to separate plasma from blood cells and then plasma was kept and stored in a −20 °C fridge until further analysis. Concentrations of albumin, total protein, aspartate aminotransferase (AST), alanine aminotransferase (ALT) and creatinine (CREA) in plasma, numbers of red blood cells (RBC), platelets (PLT), white blood cells (WBC) and hemoglobin (HGB) concentration in EDTA-anticoagulated whole blood were determined by medical laboratory scientists in Taipei Medical University Hospital (Taipei, Taiwan).

The next data set has as its system HCT-15. Briefly: MTT cell viability assay on HCT-15 (supplement). The conditions noted are these: 20 to 80 μM, 24 or 48 h, supplementary figure. The data set is classed as cell-based. The protocol: Figure S11. TFBPC and glycyrrhizic acid micelles (GAM)-encapsulated TFBPC […]
NSG mice (N = 16) with implantation of MDA-MB-231 cells on the left flank were intraperitoneally administrated with PBS (5 mL/kg), TFBPC (5 mg/kg) or glycyrrhizic acid micelles (GAM)-encapsulated TFBPC (5 mg/kg) once per week and four times total in the whole course of treatment. Tumor volume of each animal was measured by caliper for monitoring its tumor growth and then sacrificed 49 days after the first dose of treatment. Mean ± SD. **** p < 0.0001. […]
colorectal cancers. Cisplatin and three platinum-based analogues, including (4, 4-3F) PtCl2 (A), TFBPC (B) and (4, 4-5F) PtCl2 (C), were assessed for cell viability using MTT assay. MDA-MB-231 breast cancers cells (D), COLO205 (E) and HCT-15 (F) colorectal cancer cells were given various concentrations of cisplatin or analogues ranging from 20 to 80 μM for 24 or 48 h. Results were shown in mean ± SD and statistically analyzed by one-way ANOVA and Tukey’s post hoc test. * p < 0.05, ** p < 0.01, *** p < 0.001, **** p < 0.0001. […]
On the technique in general: Tetrazolium dyes change colour on reduction, which living cells bring about.

The test system of data set [2] is MDA-MB-231 cells. Briefly: Reactive oxygen species detection (DCF-DA, flow cytometry). The data set is classed as cell-based, human. The following applies: MDA-MB-231, 8 h. As to the method:
DCF-DA is highly fluorescent and can label ROS for quantitative assessment using flow cytometer with excitation/emission at 485 nm/535 nm. To harvest and collect adherent and suspended cells, we first collected suspended cells from supernatant by centrifuging at 3000 rpm for 5 min at 4 °C and then adding trypsin to detach these adherent cells in the 6-well plate, followed by removing suspended cells via centrifugation. Both cell pellets after centrifugation were collected and re-suspended in PBS for subsequent quantitative analysis of ROS productions from cells treated either with CDDP or TFBPC using flow cytometer by gating the positive area in the histogram.

For data set [3], the system named is MDA-MB-231 cells. Briefly: Cell line-derived xenograft (CDX) model, tumor growth. In kind it is in vivo. The following applies: NSG mice. The protocol: The procedures for the establishment of breast cancer-bearing xenograft models were modified from a previous publication and approved by the Taipei Medical University (TMU) Institutional Animal Care and Use Committee (IACUC No. LAC-2020-0175). Overall, 4- to 6-week-old NOD.Cg-PrkdcscidIl2rgtm1Wjl/SzJ (NSG) female mice purchased from National Laboratory Animal Center (Taipei, Taiwan) were housed in specific pathogen-free rooms with ad libitum feeding and 12 h light–dark cycle. After a week of acclimatization, 2 × 10^6 MDA-MB-231 cells suspended in 1:1 ratio of phosphate-buffered saline plus Matrigel® Matrix (Cat. 356237; Corning Inc., New York, NY, USA) were subcutaneously injected on the right flank of each mouse. […] To monitor tumor growth in the models, tumor diameter was measured using an electronic caliper and values were applied on the equation: width^2 × length × 0.52 to estimate their tumor volume. All mice were sacrificed on day 28 after treatment. Plasma, tumors and major organs (heart, liver, kidney, spleen and lung) were collected for toxicity assessment and metastasis evaluation.

Data set [4] in a line: HE staining of major organs (CDX model). The conditions noted are these: xenograft model. In kind it is in vivo, mice. From the text: Formalin-fixed and paraffin-embedded 4 μm sections of tumor and organs from cell-bearing xenograft models were stained in hematoxylin and eosin to provide an overall morphology of tissues. Tumor sections were dewaxed with UltraClear™ (J.T.Baker, Phillipsburg, NJ, USA), rehydrated in a descending series of alcohol and water and had antigens unmasked in pH 6 or pH 9 Epitope Retrieval Solution (Leica Biosystems Inc., Wetzlar, Germany) in a microwave pressure cooker. […] VisUCyte HRP Polymer Antibody against rabbit IgG (VC003-025; R&D Systems, Minneapolis, MN, USA) and mouse IgG (VC001-025; R&D Systems, Minneapolis, MN, USA) were targeted to primary antibodies. Liquid DAB+ system from Agilent Technologies (Santa Clara, CA, USA) was applied as a chromogen for visualizing. Slides were mounted after hematoxylin counterstaining. All images were scanned using Motic EasyScan Pro 6 pathology slide scanner (Motic China Group Co., Ltd., Hong Kong, China).

Where [5] appears, read: 5 mg/kg i.p. weekly x4, day 28, reference interval 0.2–0.5.
The mark [6] stands for this setting: 5 mg/kg i.p. weekly x4, day 28, reference interval 4–10.9.
Where [7] appears, read: 5 mg/kg i.p. weekly x4, day 28, reference interval 7.75–9.61.
Where [8] appears, read: 5 mg/kg i.p. weekly x4, day 28, reference interval 13–39.
Setting [9] is: 5 mg/kg i.p. weekly x4, day 28, reference interval 63–227.
The mark [10] stands for this setting: 5 mg/kg i.p. weekly x4, day 28, reference interval 853–1951.
Setting [11] is: 5 mg/kg i.p. weekly x4, day of sacrifice (day 28).
[12] abbreviates: 5 mg/kg i.p. weekly x4, day 28, PBS 1412.72 ± 120.85.
[13] abbreviates: 2.11 mg/kg i.p. weekly x4, day 28.

In data set [1] (5 mg/kg i.p. weekly x4, day 28), `FC(F)C(F)(F)COCc1ccnc(-c2cc(COCC(F)(F)C(F)F)ccn2)c1.[Cl][Pt][Cl]` [TFBPC] returned a Heart of 0.14 ± 0.04 g, a Kidney of 0.31 ± 0.02 g, a Liver of 1.04 ± 0.08 g and a Lung of 0.23 ± 0.04 g. The Spleen in data set [1] (5 mg/kg i.p. weekly x4, day 28) was found to be 0.03 ± 0.00 g. Besides, in data set [1] (setting [5]), the CREA amounted to 0.20 ± 0.00 mg/dL. For the same compound, in data set [1] (5 mg/kg i.p. weekly x4, day 28, reference interval 3.0–3.9), the Albumin came to 3.20 ± 0.29 g/dL. For the same compound, the WBC in data set [1] (setting [6]) is 5.70 ± 1.54 10^3/µL. Besides, the Total protein in data set [1] (5 mg/kg i.p. weekly x4, day 28, reference interval 4.5–5.5) worked out at 4.98 ± 0.17 g/dL. Also, the RBC in data set [1] (setting [7]) is recorded as 9.85 ± 0.30 10^6/µL. The compound also displayed an HGB in data set [1] (5 mg/kg i.p. weekly x4, day 28, reference interval 12.20–13.90) of 14.9 ± 0.53 g/dL. In data set [1] (setting [8]), this compound displayed an ALT of 38.75 ± 7.09 U/L. In data set [1] (setting [9]), this compound came in with an AST of 190.0 ± 65.17 U/L. The PLT in data set [1] (setting [10]) was 975 ± 205.8 10^3/µL. This compound also showed a Body weight in data set [1] (setting [11]) of 23.62 ± 1.56 g. Besides, the “cell viability of HCT-15 cells” value in the data set with HCT-15 is “statistically reduced cell viability”. In addition, the ROS production entry in the data set on MDA-MB-231 cells [2] is on record as “apparent increase in ROS production”. Further, the tumor weight with MDA-MB-231 cells [3] (5 mg/kg i.p. weekly x4, day 28) is reported as ~ 0.3 g. The average tumor volume in the data set on MDA-MB-231 cells [3] (setting [12]) was about 413.03 ± 87.50 mm^3. Further, the “pathophysiological changes in heart, kidneys, liver, lungs and spleen (HE staining)” value in data set [4] was “No obvious pathophysiological changes”.

On to `N.N.[Cl][Pt][Cl]` [CDDP, Cis-diamineplatinum(II) dichloride], for which the Heart in data set [1] (setting [13]) is reported as 0.14 ± 0.04 g; in data set [1] (5 mg/kg i.p. weekly x4, day 28) it was 0.13 ± 0.01 g. The Kidney in data set [1] (setting [13]) came out at 0.31 ± 0.02 g; in data set [1] (5 mg/kg i.p. weekly x4, day 28) it was 0.29 ± 0.02 g. The Liver in data set [1] (setting [13]) was 1.04 ± 0.08 g; in data set [1] (5 mg/kg i.p. weekly x4, day 28), 0.98 ± 0.10 g. Further, the Lung in data set [1] (setting [13]) was determined as 0.23 ± 0.04 g; in data set [1] (5 mg/kg i.p. weekly x4, day 28), 0.26 ± 0.13 g. Also, the Spleen was 0.03 ± 0.00 g in data set [1] (setting [13]) and 0.13 ± 0.18 g in data set [1] (5 mg/kg i.p. weekly x4, day 28). In addition, the CREA in data set [1] (2.11 mg/kg i.p. weekly x4, day 28, reference interval 0.2–0.5) is reported as 0.20 ± 0.00 mg/dL; in data set [1] (setting [5]), 0.23 ± 0.05 mg/dL. Besides, the WBC in data set [1] (2.11 mg/kg i.p. weekly x4, day 28, reference interval 4–10.9) is reported as 3.48 ± 0.13 ^§ 10^3/µL; in data set [1] (setting [6]), 6.33 ± 1.59 10^3/µL. For the same compound, the RBC in data set [1] (2.11 mg/kg i.p. weekly x4, day 28, reference interval 7.75–9.61) was 9.25 ± 0.33 10^6/µL; in data set [1] (setting [7]) it was 9.18 ± 0.46 10^6/µL. For the same compound, the ALT came to 34.25 ± 9.18 U/L in data set [1] (2.11 mg/kg i.p. weekly x4, day 28, reference interval 13–39) and 29.00 ± 3.46 U/L in data set [1] (setting [8]). For the same compound, the AST in data set [1] (2.11 mg/kg i.p. weekly x4, day 28, reference interval 63–227) is on record as 120.3 ± 20.82 U/L; in data set [1] (setting [9]), 172.3 ± 44.28 U/L. Moreover, the PLT in data set [1] (2.11 mg/kg i.p. weekly x4, day 28, reference interval 853–1951) is given as 867.3 ± 97.6 10^3/µL; in data set [1] (setting [10]) it was 927.80 ± 223.4 10^3/µL. Moreover, the Body weight in data set [1] (2.11 mg/kg i.p. weekly x4, day of sacrifice (day 28)) was found to be 24.08 ± 2.89 g; in data set [1] (setting [11]), 22.20 ± 2.12 g. Also, the average tumor volume entry with MDA-MB-231 cells [3] (2.11 mg/kg i.p. weekly x4, day 28, PBS 1412.72 ± 120.85) is “around 821.66 ± 133.75 mm^3”; with MDA-MB-231 cells [3] (setting [12]), about 540.23 ± 133.20 mm^3.
